Measurements published in PMC7748245, “Identification and Optimization of a Series of 8-Hydroxy Naphthyridines with Potent In Vitro Antileishmanial Activity: Initial SAR and Assessment of In Vivo Activity” (Journal of Medicinal Chemistry, 2020).
In brackets after ≈: the same amount, converted by molar mass. Read-outs that look alike come from different tables or passages of the source.

Key:
L. donovani amastigotes = test: Intramacrophage L. donovani assay (Ld InMac); type: cell-based, Leishmania donovani; details: for IC50 / EC50: Leishmania donovani; for IC50: read-out: LdInMac pIC50 (converted); for Ld InMac (pEC50) / EC50: L. donovani amastigotes in THP-1 cells, 96 h compound exposure; for EC50: THP-1, 96 h, read-out: Ld InMac (pEC50) (converted); for loss in potency compared to 1: Ld InMac
Method: (§1) This assay was conducted as previously described,[8] except for compound exposure time, which was 96 h instead of 72 h.

THP-1 cells = test: THP-1 host cell toxicity readout of the intramacrophage assay; type: cell-based, human; details: for IC50: Homo sapiens; for THP-1 (pEC50): human THP-1 host cells
Method: as §1

[1] = Mouse liver microsomal intrinsic clearance; type: in vitro ADME; details: for Cli (mouse liver microsomal intrinsic clearance): mouse liver microsomes; for Cli (mouse, ml/min/g): supplement sheet
Method: (§2) These assays were conducted as previously described.[23]

Chrom Log D pH7.4 = type: physicochemical; details: for ChromLogDpH7.4: pH 7.4; for ChromLogD: supplement sheet
Method: This assay was conducted as previously described.[11]

[2] = Kinetic aqueous solubility; type: physicochemical; details: kinetic; read-out: Aq Solubility (kinetic aqueous solubility)
Method: as §2

[3] = THP-1, supplement sheet, read-out: THP1 pIC50 (converted)

Compound	IC50 (L. donovani amastigotes; supplement sheet) [µM]	IC50 (THP-1 cells; [3]) [µM]	Cli (mouse liver microsomal intrinsic clearance) [1] [mL/min/g]	Cli (mouse, ml/min/g) [1] [mL/min/g]	LdInMac pIC50 (L. donovani amastigotes; supplement sheet)	THP-1 (pEC50) (THP-1 cells)	THP1 pIC50 (THP-1 cells; supplement sheet)	solubility kinetic [2] [µM]	also measured
O=C1CCCN1Cc1n[nH]c(-c2ncc3cccnc3c2O)n1 [Compound 6, 1-((5-(8-Hydroxy-1,6-naphthyridin-7-yl)-1H-1,2,4-triazol-3-yl)methyl)pyrrolidin-2-one]	> 50.1	> 50.1	<0.5	<0.5					
O=C(NCc1ccc(Cl)cc1)c1nc(NC2CCOCC2)c2cccnc2c1O [Compound 31, N-(4-Chlorobenzyl)-8-hydroxy-5-((tetrahydro-2H-pyran-4-yl)amino)-1,6-naphthyridine-7-carboxamide]			2.2	2.2	5.3	<4.3	<4.3	>250	Ld InMac (pEC50) (L. donovani amastigotes): 5.3; ChromLogDpH7.4 (Chrom Log D pH7.4): 5.3; ChromLogD (Chrom Log D pH7.4): 5.3
COc1ccc(CNC(=O)c2nn(C)c3cccnc3c2=O)cc1 [Compound 23, N-(4-Methoxybenzyl)-1-methyl-4-oxo-1,4-dihydropyrido[3,2-c]pyridazine-3-carboxamide]	> 50.1	> 50.1							
N-(Cyclopropylmethyl)-8-hydroxy-1,6-naphthyridine-7-carboxamide [Compound 29]			13	13	5.9	<4.3	<4.3		Ld InMac (pEC50) (L. donovani amastigotes): 5.9; ChromLogDpH7.4 (Chrom Log D pH7.4): 3.3; ChromLogD (Chrom Log D pH7.4): 3.3
Oc1c(-c2nc(CN3CCOCC3)n[nH]2)ncc2cccnc12 [Compound 5, 7-(3-(Morpholinomethyl)-1H-1,2,4-triazol-5-yl)-1,6-naphthyridin-8-ol]	31.6	> 50.1							EC50 (L. donovani amastigotes): 31.6 µM
Cc1nnc(C(=O)NC(C)(C)c2nc(C(=O)NCc3ccc(F)cc3)c(O)c(=O)n2C)o1 [Compound 24, Raltegravir, reference compound]									IC50 (L. donovani amastigotes): > 50.1 µM; IC50 (THP-1 cells; THP-1, read-out: THP1 pIC50 (converted)): > 50.1 µM
O=C(NCc1ccc(Cl)cc1)c1ccc2cccnc2c1O [Compound 20]	15.8	6.31				toxic to the host THP-1 cells			
Cc1n[nH]c(-c2nc(NCc3ccc(Cl)cc3)c3cccnc3c2O)n1 [Compound 10, 5-((4-Chlorobenzyl)amino)-7-(3-methyl-1H-1,2,4-triazol-5-yl)-1,6-naphthyridin-8-ol]			3.4	3.4	5.8	<4.3	<4.3	219 (≈ 80.3 µg/mL)	ChromLogDpH7.4 (Chrom Log D pH7.4): 4.4; ChromLogD (Chrom Log D pH7.4): 4.4
2-(8-Hydroxy-7-(3-methyl-1H-1,2,4-triazol-5-yl)-1,6-naphthyridin-5-yl)-1,2-thiazinane 1,1-dioxide [Compound 13]			0.6	0.6	<4.3	<4.3	<4.3	250	ChromLogDpH7.4 (Chrom Log D pH7.4): 1.5; ChromLogD (Chrom Log D pH7.4): 1.5
N-(Cyclopropylmethyl)-8-hydroxy-5-(2-methoxyphenyl)-1,6-naphthyridine-7-carboxamide [Compound 33]			8	8	5.7	<4.3	<4.3	>250	Ld InMac (pEC50) (L. donovani amastigotes): 5.7
Oc1c(-c2nnc(Cc3ccc(Cl)cc3)[nH]2)ncc2cccnc12 [Compound 1]	0.316	31.6							EC50 (L. donovani amastigotes): 0.316 µM; selectivity over the human THP-1 cell line (L. donovani amastigotes; parasite vs THP-1 pEC50): ~100 fold
Cc1n[nH]c(-c2nc(N3CCOCC3)c3cccnc3c2O)n1 [Compound 11, 7-(3-Methyl-1H-1,2,4-triazol-5-yl)-5-morpholino-1,6-naphthyridin-8-ol]			3.1	3.1	5	<4.3	<4.3	>250	ChromLogDpH7.4 (Chrom Log D pH7.4): 1.8; ChromLogD (Chrom Log D pH7.4): 1.8
Oc1c(-c2nc(C(O)c3ccccc3)n[nH]2)ncc2cccnc12 (centres unmarked) [Compound 3, 7-(3-(Hydroxy(phenyl)methyl)-1H-1,2,4-triazol-5-yl)-1,6-naphthyridin-8-ol]	5.01	> 50.1							loss in potency compared to 1 (L. donovani amastigotes): ~10 fold
Cc1n[nH]c(-c2ncc3cccnc3c2O)n1 [Compound 4, 7-(3-Methyl-1H-1,2,4-triazol-5-yl)-1,6-naphthyridin-8-ol]	> 50.1	> 50.1							
O=C(NCc1ccc(Cl)cc1)c1ncc2cccnc2c1O [Compound 7, N-(4-Chlorobenzyl)-8-hydroxy-1,6-naphthyridine-7-carboxamide]	0.501	> 50.1							EC50 (L. donovani amastigotes): 0.501 µM
Cc1n[nH]c(-c2cc3ncccc3c(-c3ccccc3)n2)n1 [Compound 17]	> 50.1	> 50.1							
COc1ccccc1-c1nc(-c2nnc(C)o2)c(O)c2ncccc12 [Compound 19, 5-(2-Methoxyphenyl)-7-(5-methyl-1,3,4-oxadiazol-2-yl)-1,6-naphthyridin-8-ol]	> 50.1	> 50.1	<0.5	<0.5					
O=C(NCc1ccc(F)cc1)c1nc(N2CCCCS2(=O)=O)c2cccnc2c1O [Compound 30, N-(4-Fluorobenzyl)-5-(1,1-dioxido-1,2-thiazinan-2-yl)-8-hydroxy-1,6-naphthyridine-7-carboxamide, reference compound]			2.0	2	<4.3	4.5	4.5	> 250	
Oc1c(-c2nnc(Cc3ccc(F)cc3)[nH]2)ncc2cccnc12 [Compound 2]	2.51	39.8							loss in potency compared to 1 (L. donovani amastigotes): ~10 fold
7-(3-Methyl-1H-1,2,4-triazol-5-yl)-5-(2-(trifluoromethyl)phenyl)-1,6-naphthyridin-8-ol [Compound 15]			1.4	1.4	7	<4.3	<4.3	>250	Ld InMac (pEC50) (L. donovani amastigotes): 7.0; ChromLogDpH7.4 (Chrom Log D pH7.4): 4.3; ChromLogD (Chrom Log D pH7.4): 4.3
CNc1nc(-c2nc(C)n[nH]2)c(O)c2ncccc12 [Compound 8, 7-(3-Methyl-1H-1,2,4-triazol-5-yl)-5-(methylamino)-1,6-naphthyridin-8-ol]			3.1	3.1	<4.3	<4.3	<4.3	>250	ChromLogDpH7.4 (Chrom Log D pH7.4): -0.2; ChromLogD (Chrom Log D pH7.4): -0.2
N-(4-Chlorobenzyl)-8-hydroxy-5-morpholino-1,6-naphthyridine-7-carboxamide [Compound 32]			24	24	<4.3	<4.3	<4.3	219	Ld InMac (pEC50) (L. donovani amastigotes): <4.3
(R)-N-(1-(4-Fluorophenyl)ethyl)-1-methyl-4-oxo-1,4-dihydro-1,5-naphthyridine-3-carboxamide [Compound 22]			0.7	0.7	<4.3	<4.3	<4.3	>250	
O=C(NCc1ccc(Cl)cc1)c1ncc2ccccc2c1O [Compound 21]	> 50.1	> 50.1							
Cc1n[nH]c(-c2nc(-c3ccccc3)c3cccnc3c2O)n1 [Compound 14, 7-(3-Methyl-1H-1,2,4-triazol-5-yl)-5-phenyl-1,6-naphthyridin-8-ol]			9.4	9.4	5.9	<4.3	<4.3	160 (≈ 48.5 µg/mL)	Ld InMac (pEC50) (L. donovani amastigotes): 5.9
COc1ccc(CNC(=O)c2ncc3cccnc3c2O)cc1 [Compound 27, 8-Hydroxy-N-(4-methoxybenzyl)-1,6-naphthyridine-7-carboxamide]	0.501	> 50.1							Ld InMac (pEC50) (L. donovani amastigotes): 6.3; EC50 (L. donovani amastigotes): < 1 µM
COc1ccccc1-c1nc(-c2nc(C)n[nH]2)c(OC)c2ncccc12 [Compound 18]	2.51	> 50.1							
Cc1n[nH]c(-c2nc(N3CCCC3=O)c3cccnc3c2O)n1 [Compound 12, 1-(8-Hydroxy-7-(3-methyl-1H-1,2,4-triazol-5-yl)-1,6-naphthyridin-5-yl)pyrrolidin-2-one]			<0.5	<0.5	<4.3	<4.3	<4.3	109 (≈ 33.8 µg/mL)	
